# pKd: −log10 of the molar value. Values joined by “and” are separate entries in the source; they are usually repeats but may differ in a detail not shown here. Equal values may be shown once. {DOTA-AEEA-S-S} = N-terminal DOTA chelator joined through an AEEA linker and two serines; {EEY-NH2} = C-terminal Glu-Glu-Tyr amide
# Assays:
# ZHER2:342-SR-HP15 = test: SPR hybridization of complementary PNA probes to immobilized ZHER2:342-SR-HP15; type: binding; details: for kd: dissociation 10 000 s; for affinity to ZHER2:342-SR-HP15 relative to HP16: SPR, kd too slow to determine
# Protocol: The kinetic parameters for hybridization of the PNA probes were analyzed using surface plasmon resonance (SPR) on a Biacore™ 8K instrument (GE Healthcare). Dextran chips Series S Sensor CM5 (GE Healthcare), were functionalized with ZHER2:342-SR-HP15 on four surfaces to 385, 194, 185 and 353 resonance units (RU) using standard amine coupling procedures. A reference surface on each chip was subjected to activation followed by deactivation. The complementary PNA probes HP16, HP17, HP18 and HP19 were injected at 5 concentrations; 22.6, 45.3, 90.6, 181.25 and 362.5 nM using a single cycle injection. Association for each concentration was allowed for 300 s, followed by the next injection and association phase. After injection of the final concentration, dissociation was allowed for 10 000 s (2 h 47 min) before regeneration with 10 mM HCl for 30 s followed by 15 mM NaOH for 30 s. All runs were performed in PBST (0.05% Tween-20) pH 7.4 using a flow rate of […] at 25° C. Kinetic parameters were calculated using 1:1 binding model in Biacore Insight Evaluation software.
# HP15 = test: Melting temperature of PNA hybridization complexes with HP15 (UV absorbance at 260 nm); type: physicochemical; details: duplex with HP15, monitored at 260 nm
# Protocol: Melting temperatures for HP15:HP16, HP15:HP17 and HP15:HP18 were determined by monitoring UV absorbance at 260 nm (Chirascan™, Applied Photophysics) at a temperature range from 20 to 95° C., using a temperature change of 1° C./min. The PNA complexes were heated to 80° C. for 5 min and were then allowed to hybridize at room temperature for 5 min prior to UV monitoring at room temperature for 5 min. CD spectra were collected before and after determination of thermal denaturation. The melting temperature for the HP15:HP19 complex was determined using a Varian Cary 50 Bio UV-visual spectrophotometer equipped with a single-cell Peltier thermostat controlled cuvette holder. The temperature in the cell was adjusted at a speed of 0.5° C./min between 20 to 80° C., and measurements were taken at 260 nm after a 60 s equilibration at each temperature point.
# [1] = In vitro stability of 177Lu-labeled probes (EDTA challenge, PBS control); type: physicochemical; details: 177Lu-labeled probe, 500-fold molar excess of EDTA
# Protocol: To evaluate stability, a fraction of the freshly radiolabeled conjugate (0.4 μg) was incubated with 500-fold molar excess of EDTA for 60 min at 37° C. Incubation was also performed in PBS as a control. The test was run in triplicates.
# SKOV3 xenografts = test: Estimated dosimetry: areas under time-activity plots for kidney and tumor; type: in vivo, BALB/c nu/nu mice; details: non-decay corrected data, 4 and 144 h, pretargeted
# Protocol: To estimate a ratio of absorbed doses in tumor and kidneys, cumulated activity in kidney and tumor were assessed. The estimation was based on a clinically validated two time point approach (Freedman 2020). The biodistribution data were non-decay corrected and areas under time-activity plot was calculated using GraphPad Prism software. The assumptions were that the main absorbed dose will be due to beta-particles, as cross-doses would be negligible, and the absorbed fraction would be equal to 1.
# [2] = binding to immobilized ZHER2:342-SR-HP15, SPR
Substance,ka (ZHER2:342-SR-HP15; [2]) [M⁻¹ s⁻¹],"pKd (ZHER2:342-SR-HP15; binding to immobilized ZHER2:342-SR-HP15, SPR, 25° C., 1:1 model)",kd (ZHER2:342-SR-HP15; [2]),Tm (HP15) [°C],"Stability (×500 EDTA), 37° C., 1 h [1]",Tumor-to-kidney ratio (areas under time-activity plots) (SKOV3 xenografts),"pKd (ZHER2:342-SR-HP15; interaction with HP15, SPR)",affinity to ZHER2:342-SR-HP15 relative to HP16 (ZHER2:342-SR-HP15)
"DOTA-AEEA-S-S-a-a-c-a-c-c-a-g-g-E-E-Y-NH2 (AACACCAGG; chemistry not fully specified) [HP16, secondary probe, 9-mer PNA]",46000,~9.55 and 9.55,1.2e-05 s⁻¹,73,100 ± 0,3.8,,
DOTA-AEEA-S-S-a-c-c-a-g-g-E-E-Y-NH2 [HP19],2.1e+07,,0.072 s⁻¹,55,,,8.47,
"DOTA-AEEA-S-S-a-t-c-a-a-c-a-c-c-a-g-g-E-E-Y-NH2 (ATCAACACCAGG; chemistry not fully specified) [HP17, secondary probe, 12-mer PNA]",43000,,too slow to be determined,75,100 ± 0,2.8,,estimated to be higher
"DOTA-AEEA-S-S-a-t-c-a-t-c-a-a-c-a-c-c-a-g-g-E-E-Y-NH2 (ATCATCAACACCAGG; all peptide nucleic acid (PNA), 5' {DOTA-AEEA-S-S}, 3' {EEY-NH2}) [HP18, secondary probe, 15-mer PNA]",57000,,too slow to be determined,87,100 ± 0,2.0,,estimated to be higher
"DOTA-AEEA-S-S-g-a-c-t-a-c-a-t-c-c-a-g-a-c-t-E-E-Y-NH2 (GACTACATCCAGACT; all peptide nucleic acid (PNA), 5' {DOTA-AEEA-S-S}, 3' {EEY-NH2}) [HP2, first-generation secondary PNA probe (Westerlund et al, 2015), reference compound]",,,,,,2.0,,

# Reference: US20240148917A1, “PNA PROBES FOR PRETARGETED IMAGING AND THERAPY” (Zytox Therapeutics AB, priority 2020, published 2024)
